US7122543B2, “Substituted benzoic acid derivatives having NF-κB inhibiting action” (Daiichi Suntory Pharma Co., Ltd., priority 2001, dated 2006)
Converted amounts (≈) assume the structure as drawn.

system: NF-κB; assay: NF-κB luciferase reporter assay in A549/NF-κBLuc cells stimulated with IL-1β; type: cell-based, human; conditions: A549/NF-κBLuc cells; compound added 1 hour before IL-1β, 3 hours more incubation; luciferase activity as index
Procedure: Effects of Compounds on Human Lung Cancer A549 Cells (A549/NF-κBLuc) Stably Transfected with Luciferase Plasmid (pNFκB-Luc, Stratagene, U.S.A.) Having the NF-κB Regulatory Sequence
Using lipofectamine (Lifetech Oriental K.K., Tokyo), pNFκB-Luc were cotransfected with pSV2neo (Clontech, U.S.A.) into A549 cells (ATCC CCL185) according to the conventional method, and A549/NF-κBLuc stably transfected with pNFκB-Luc were selected by adding G418 sulfate (1 mg/ml, Lifetech Oriental K.K.) to the culture medium.
A compound prepared in an Example was added to A549/NF-κBLuc, then IL-1β which was able to activate the NF-κB was added at 1 hour thereafter and incubation was continued for 3 hours more. It has been made clear by using a luciferase activity as an index that the compound obtained in the Example suppresses the activation of NF-κB by stimulated with IL-1β.

Structure (SMILES)	IC50 value
COC1=C(OC)C(=O)C(Cc2ccc(-c3ccncc3)c(C(=O)N3CCCCC3)c2)=C(C)C1=O [Example 58b, N-[5-(5,6-Dimethoxy-3-methyl-1,4-benzoquinon-2-yl)methyl-2-(4-pyridyl)benzoyl]piperidine]	45 µg/mL (≈ 97.7 µM)
COC1=C(OC)C(=O)C(Cc2ccc(-c3ccncc3)c(C(=O)N[C@@H](C)c3ccccc3)c2)=C(C)C1=O [Example 74b, (S)-N-[5-(5,6-Dimethoxy-3-methyl-1,4-benzoquinon-2-yl)methyl-2-(4-pyridyl)benzoyl]-1-phenylethylamine]	>45 µg/mL

same assay, conditions: A549/NF-κBLuc cells; word printed in the IC50 column instead of a value

Structure (SMILES)	IC50 value (result in words)
COc1c(C)c(Cc2ccc(C(=O)O)c(-c3cccnc3)c2)c(OC)c(OC)c1OC [Example 12, 4-(3,4,5,6-Tetramethoxy-2-methylbenzyl)-2-(3-pyridyl) benzoic acid]	toxic

same assay, conditions: Homo sapiens, A549, A549/NF-κBLuc cells; compound added 1 hour before IL-1β, 3 hours more incubation; luciferase activity as index

Structure (SMILES)	IC50
COC1=C(OC)C(=O)C(Cc2ccc(-c3cccc(OC)c3)c(C(=O)Nc3ccc(OC)cc3)c2)=C(C)C1=O [Example 67, N-[5-(5,6-Dimethoxy-3-methyl-1,4-benzoquinon-2-yl)methyl-2-(3-methoxyphenyl)benzoyl]-4-methoxyaniline]	> 45 µg/mL
COC1=C(OC)C(=O)C(Cc2ccc(-c3ccc(OC)cc3)c(C(=O)O)c2)=C(C)C1=O [Example 40, 5-(5,6-Dimethoxy-3-methyl-1,4-benzoquinon-2-yl)methyl-2-(4-methoxyphenyl)benzoic acid]	> 45 µg/mL
COC1=C(OC)C(=O)C(Cc2ccc(-c3ccncc3)c(C(=O)Nc3ccc(OC)cc3)c2)=C(C)C1=O.Cl [Example 60b, N-[5-(5,6-Dimethoxy-3-methyl-1,4-benzoquinon-2-yl)methyl-2-(4-pyridyl)benzoyl]-4-methoxyaniline]	> 30 µg/mL
COC1=C(OC)C(=O)C(Cc2ccc(-c3ccccc3)c(C(=O)N3CCOCC3)c2)=C(C)C1=O [Example 51, N-[5-(5,6-Dimethoxy-3-methyl-1,4-benzoquinon-2-yl)methyl-2-phenylbenzoyl]morpholine]	> 30 µg/mL
COC1=C(OC)C(=O)C(Cc2ccc(-c3ccncc3)c(C(=O)N[C@@H](C)c3ccccc3)c2)=C(C)C1=O [Example 74a, (S)-N-[5-(5,6-Dimethoxy-3-methyl-1,4-benzoquinon-2-yl)methyl-2-(4-pyridyl)benzoyl]-1-phenylethylamine]	> 45 µg/mL
COC1=C(OC)C(=O)C(Cc2ccc(-c3ccccc3)c(C(=O)Nc3ccc(OC)cc3)c2)=C(C)C1=O [Example 52, N-[5-(5,6-Dimethoxy-3-methyl-1,4-benzoquinon-2-yl)methyl-2-phenylbenzoyl]-4-methoxyaniline]	> 45 µg/mL
COC1=C(OC)C(=O)C(Cc2ccc(-c3ccncc3)c(C(=O)NC3CCCC3)c2)=C(C)C1=O [Example 77a, N-[5-(5,6-Dimethoxy-3-methyl-1,4-benzoquinon-2-yl)methyl-2-(4-pyridyl)benzoyl]cyclopentylamine]	> 45 µg/mL
COC1=C(OC)C(=O)C(Cc2ccc(-c3cccc(OC)c3)c(C(=O)N3CCCCC3)c2)=C(C)C1=O [Example 65, N-[5-(5,6-Dimethoxy-3-methyl-1,4-benzoquinon-2-yl)methyl-2-(3-methoxyphenyl)benzoyl]-piperidine]	40 µg/mL
COC1=C(OC)C(=O)C(Cc2ccc(-c3cccnc3)c(C(=O)O)c2)=C(C)C1=O [Example 38, 5-(5,6-Dimethoxy-3-methyl-1,4-benzoquinon-2-yl)methyl-2-(3-pyridyl)benzoic acid]	> 45 µg/mL
COc1ccccc1-c1ccc(Cc2c(C)c(OC)c(OC)c(OC)c2OC)cc1C(=O)O [Example 18, 5-(3,4,5,6-Tetramethoxy-2-methylbenzyl)-2-(2-methoxyphenyl)benzoic acid]	> 15 µg/mL
COC1=C(OC)C(=O)C(Cc2ccc(-c3cccnc3)c(C(=O)N3CCCCC3)c2)=C(C)C1=O [Example 54, N-[5-(5,6-Dimethoxy-3-methyl-1,4-benzoquinon-2-yl)methyl-2-(3-pyridyl)benzoyl]piperidine]	15 µg/mL
COc1cccc(-c2ccc(Cc3c(C)c(OC)c(OC)c(OC)c3OC)cc2C(=O)O)c1 [Example 17, 5-(3,4,5,6-Tetramethoxy-2-methylbenzyl)-2-(3-methoxyphenyl)benzoic acid]	> 15 µg/mL
COC1=C(OC)C(=O)C(Cc2ccc(C(=O)O)c(-c3cccnc3)c2)=C(C)C1=O [Example 36, 4-(5,6-Dimethoxy-3-methyl-1,4-benzoquinon-2-yl)methyl-2-(3-pyridyl)benzoic acid]	> 15 µg/mL
COC1=C(OC)C(=O)C(Cc2ccc(-c3ccc(OC)cc3)c(C(=O)Nc3ccc(OC)cc3)c2)=C(C)C1=O [Example 64, N-[5-(5,6-Dimethoxy-3-methyl-1,4-benzoquinon-2-yl)methyl-2-(4-methoxyphenyl]benzoyl)-4-methoxyaniline]	12 µg/mL
CCC(CC)NC(=O)c1cc(CC2=C(C)C(=O)C(OC)=C(OC)C2=O)ccc1-c1ccncc1 [Example 79a, N-[5-(5,6-Dimethoxy-3-methyl-1,4-benzoquinon-2-yl)methyl-2-(4-pyridyl)benzoyl]-1-ethylpropylamine]	> 45 µg/mL
COC1=C(OC)C(=O)C(Cc2cccc(C(=O)Nc3ccc(C(F)(F)F)cc3)c2-c2ccncc2)=C(C)C1=O [Example 73, N-[3-(45,6-Dimethoxy-3-methyl-1,4-benzoquinon-2-yl)methyl-2-(4-pyridyl)benzoyl]-4-trifluoromethylaniline]	> 30 µg/mL
COC1=C(OC)C(=O)C(Cc2ccc(-c3ccncc3)c(C(=O)N3CCOCC3)c2)=C(C)C1=O [Example 59, N-[5-(5,6-Dimethoxy-3-methyl-1,4-benzoquinon-2-yl)methyl-2-(4-pyridyl)benzoyl]morpholine]	> 45 µg/mL
COC1=C(OC)C(=O)C(Cc2ccc(C(=O)Nc3ccc(C(F)(F)F)cc3)c(-c3ccccc3)c2)=C(C)C1=O [Example 45, N-[4-(5,6-Dimethoxy-3-methyl-1,4-benzoquinon-2-yl)methyl-2-phenylbenzoyl]-4-trifluoromethyl-aniline]	> 30 µg/mL
COC1=C(OC)C(=O)C(Cc2ccc(-c3ccncc3)c(C(=O)Nc3ccc(OC)cc3)c2)=C(C)C1=O [Example 60a, N-[5-(5,6-Dimethoxy-3-methyl-1,4-benzoquinon-2-yl)methyl-2-(4-pyridyl)benzoyl]-4-methoxyaniline]	> 30 µg/mL
COC1=C(OC)C(=O)C(Cc2ccc(C(=O)Nc3ccc(OC)cc3)c(-c3cccnc3)c2)=C(C)C1=O [Example 49, N-[4-(5,6-Dimethoxy-3-methyl-1,4-benzoquinon-2-yl)methyl-2-(3-pyridyl)benzoyl]-4-methoxy-aniline]	24 µg/mL
COc1c(C)c(Cc2ccc(-c3cccnc3)c(C(=O)O)c2)c(OC)c(OC)c1OC [Example 14, 5-(3,4,5,6-Tetramethoxy-2-methylbenzyl)-2-(3-pyridyl)benzoic acid]	> 15 µg/mL
COC1=C(OC)C(=O)C(Cc2ccc(C(=O)Nc3ccc(C(F)(F)F)cc3)c(-c3cccnc3)c2)=C(C)C1=O [Example 48, N-[4-(5,6-Dimethoxy-3-methyl-1,4-benzoquinon-2-yl)methyl-2-(3-pyridyl)benzoyl]-4-trifluoromethylaniline]	> 30 µg/mL
COC1=C(OC)C(=O)C(Cc2ccc(-c3ccncc3)c(C(=O)N[C@H](C)c3ccccc3)c2)=C(C)C1=O [Example 75a, (R)-N-[5-(5,6-Dimethoxy-3-methyl-1,4-benzoquinon-2-yl)methyl-2-(4-pyridyl)benzoyl]-1-phenylethylamine]	> 45 µg/mL
COC1=C(OC)C(=O)C(Cc2ccc(C(=O)O)c(-c3ccccc3)c2)=C(C)C1=O [Example 35, 4-(5,6-Dimethoxy-3-methyl-1,4-benzoquinon-2-yl)methyl-2-phenylbenzoic acid]	> 15 µg/mL
COC1=C(OC)C(=O)C(Cc2ccc(-c3ccncc3)c(C(=O)NC3CC3)c2)=C(C)C1=O [Example 78a, N-[5-(5,6-Dimethoxy-3-methyl-1,4-benzoquinon-2-yl)methyl-2-(4-pyridyl)benzoyl]cyclopropyl-amine]	> 45 µg/mL
COC1=C(OC)C(=O)C(Cc2ccc(-c3ccccc3)c(C(=O)O)c2)=C(C)C1=O [Example 37, 5-(5,6-Dimethoxy-3-methyl-1,4-benzoquinon-2-yl)methyl-2-phenylbenzoic acid]	> 45 µg/mL
COC1=C(OC)C(=O)C(Cc2ccc(-c3ccncc3)c(C(=O)NC3CCCCC3)c2)=C(C)C1=O [Example 76a, N-[5-(5,6-Dimethoxy-3-methyl-1,4-benzoquinon-2-yl)methyl-2-(4-pyridyl)benzoyl]cyclohexyl-amine]	> 45 µg/mL
COC1=C(OC)C(=O)C(Cc2ccc(-c3cccnc3)c(C(=O)N3CCOCC3)c2)=C(C)C1=O [Example 55, N-[5-(5,6-Dimethoxy-3-methyl-1,4-benzoquinon-2-yl)methyl-2-(3-pyridyl)benzoyl]morpholine]	> 45 µg/mL
COC1=C(OC)C(=O)C(Cc2ccc(C(=O)N3CCOCC3)c(-c3cccnc3)c2)=C(C)C1=O [Example 47, N-[4-(5,6-Dimethoxy-3-methyl-1,4-benzoquinon-2-yl)methyl-2-(3-pyridyl)benzoyl]morpholine]	24 µg/mL
COC1=C(OC)C(=O)C(Cc2ccc(-c3cccnc3)c(C(=O)Nc3ccc(C(F)(F)F)cc3)c2)=C(C)C1=O [Example 57, N-[5-(5,6-Dimethoxy-3-methyl-1,4-benzoquinon-2-yl)methyl-2-(3-pyridyl)benzoyl]-4-trifluoromethylaniline]	> 30 µg/mL

same assay, conditions: Homo sapiens, A549, same value printed in parentheses in μM; A549/NF-κBLuc cells, IL-1β stimulation, luciferase activity

Structure (SMILES)	IC50
COC1=C(OC)C(=O)C(Cc2ccc(-c3cccc(OC)c3)c(C(=O)N3CCCCC3)c2)=C(C)C1=O [Example 65, N-[5-(5,6-Dimethoxy-3-methyl-1,4-benzoquinon-2-yl)methyl-2-(3-methoxyphenyl)benzoyl]-piperidine]	82 µM
COC1=C(OC)C(=O)C(Cc2ccc(-c3cccnc3)c(C(=O)N3CCCCC3)c2)=C(C)C1=O [Example 54, N-[5-(5,6-Dimethoxy-3-methyl-1,4-benzoquinon-2-yl)methyl-2-(3-pyridyl)benzoyl]piperidine]	33 µM
COC1=C(OC)C(=O)C(Cc2ccc(-c3ccc(OC)cc3)c(C(=O)Nc3ccc(OC)cc3)c2)=C(C)C1=O [Example 64, N-[5-(5,6-Dimethoxy-3-methyl-1,4-benzoquinon-2-yl)methyl-2-(4-methoxyphenyl]benzoyl)-4-methoxyaniline]	23 µM

same assay, conditions: same value printed in parentheses in μM; A549/NF-κBLuc cells, IL-1β stimulation, luciferase activity

Structure (SMILES)	IC50
COC1=C(OC)C(=O)C(Cc2ccc(-c3ccncc3)c(C(=O)N3CCCCC3)c2)=C(C)C1=O [Example 58b, N-[5-(5,6-Dimethoxy-3-methyl-1,4-benzoquinon-2-yl)methyl-2-(4-pyridyl)benzoyl]piperidine]	81 µM
